Data as given in the kinase profiling compilation of Christmann-Franck et al. (2016).

Legend:
Experiment in all cases: KINOMEscan competition binding
Conditions in all cases: compound 10.0 µM
CDK17 (human) = CDK17 (human) (UniProt Q00537)
NTRK3 (human) = NTRK3 (human) (UniProt Q16288)
RPS6KA6 KD1 (human) = RPS6KA6 KD1 (human) (UniProt Q9UK32)
[1] = test system: EIF2AK4 KD2 (human), Q9P2K8 [S808G]
STK4 (human) = STK4 (human) (UniProt Q13043)
[2] = biological target: TYK2 JH1 catalytic (human) (UniProt P29597)
MYO3B (human) = MYO3B (human) (UniProt Q8WXR4)
MAPK10 (human) = MAPK10 (human) (UniProt P53779)
[3] = test system: ABL1 (human), P00519 [M351T]
CDK8 (human) = CDK8 (human) (UniProt P49336)
RPS6KA4 KD2 (human) = RPS6KA4 KD2 (human) (UniProt O75676)
PRKG2 (human) = PRKG2 (human) (UniProt Q13237)
FGR (human) = FGR (human) (UniProt P09769)
CAMKK1 (human) = CAMKK1 (human) (UniProt Q8N5S9)
MLTK (human) = MLTK (human) (UniProt Q9NYL2)
PKN2 (human) = PKN2 (human) (UniProt Q16513)
STK10 (human) = STK10 (human) (UniProt O94804)
FGFR3 (human) = FGFR3 (human) (UniProt P22607)
PIP5K1A (human) = PIP5K1A (human) (UniProt Q99755)
NEK5 (human) = NEK5 (human) (UniProt Q6P3R8)
DCLK3 (human) = DCLK3 (human) (UniProt Q9C098)
TNK1 (human) = TNK1 (human) (UniProt Q13470)
PRKCE (human) = PRKCE (human) (UniProt Q02156)
STK24 (human) = STK24 (human) (UniProt Q9Y6E0)
CDK11B (human) = CDK11B (human) (UniProt P21127)
STK16 (human) = STK16 (human) (UniProt O75716)
PKN1 (human) = PKN1 (human) (UniProt Q16512)
LIMK1 (human) = LIMK1 (human) (UniProt P53667)
MAP4K4 (human) = MAP4K4 (human) (UniProt O95819)
FGFR2 (human) = FGFR2 (human) (UniProt P21802)
MAP4K2 (human) = MAP4K2 (human) (UniProt Q12851)
CDK3 (human) = CDK3 (human) (UniProt Q00526)
PTK2B (human) = PTK2B (human) (UniProt Q14289)
[4] = test system: KIT (human), P10721 [D816V]
EPHA1 (human) = EPHA1 (human) (UniProt P21709)
STK38L (human) = STK38L (human) (UniProt Q9Y2H1)
EPHA8 (human) = EPHA8 (human) (UniProt P29322)
GAK (human) = GAK (human) (UniProt O14976)
CDC42BPG (human) = CDC42BPG (human) (UniProt Q6DT37)
PRKAA2 (human) = PRKAA2 (human) (UniProt P54646)

Sequence of CDK11B (human) (P21127 whole entry, looked up): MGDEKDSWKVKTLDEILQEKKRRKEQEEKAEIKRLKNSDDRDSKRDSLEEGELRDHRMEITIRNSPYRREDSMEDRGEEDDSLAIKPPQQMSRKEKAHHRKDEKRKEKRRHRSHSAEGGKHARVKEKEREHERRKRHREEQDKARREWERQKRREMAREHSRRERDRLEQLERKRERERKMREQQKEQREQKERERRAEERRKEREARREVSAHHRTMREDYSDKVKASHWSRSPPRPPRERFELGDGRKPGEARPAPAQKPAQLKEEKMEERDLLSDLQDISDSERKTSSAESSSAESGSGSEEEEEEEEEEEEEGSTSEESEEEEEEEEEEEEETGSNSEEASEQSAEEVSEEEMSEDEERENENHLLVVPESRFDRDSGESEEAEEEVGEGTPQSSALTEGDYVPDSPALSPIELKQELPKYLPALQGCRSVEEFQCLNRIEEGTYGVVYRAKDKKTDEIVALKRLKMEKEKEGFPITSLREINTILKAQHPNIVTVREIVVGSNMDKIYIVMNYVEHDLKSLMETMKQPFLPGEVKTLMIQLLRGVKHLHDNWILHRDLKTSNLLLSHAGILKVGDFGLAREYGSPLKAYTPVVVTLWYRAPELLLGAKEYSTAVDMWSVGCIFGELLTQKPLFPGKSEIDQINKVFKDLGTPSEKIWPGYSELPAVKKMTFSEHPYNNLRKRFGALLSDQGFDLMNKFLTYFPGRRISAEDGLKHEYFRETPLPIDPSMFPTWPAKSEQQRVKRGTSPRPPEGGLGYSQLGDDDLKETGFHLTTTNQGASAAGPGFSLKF
Sequence of LIMK1 (human) (P53667 whole entry, looked up): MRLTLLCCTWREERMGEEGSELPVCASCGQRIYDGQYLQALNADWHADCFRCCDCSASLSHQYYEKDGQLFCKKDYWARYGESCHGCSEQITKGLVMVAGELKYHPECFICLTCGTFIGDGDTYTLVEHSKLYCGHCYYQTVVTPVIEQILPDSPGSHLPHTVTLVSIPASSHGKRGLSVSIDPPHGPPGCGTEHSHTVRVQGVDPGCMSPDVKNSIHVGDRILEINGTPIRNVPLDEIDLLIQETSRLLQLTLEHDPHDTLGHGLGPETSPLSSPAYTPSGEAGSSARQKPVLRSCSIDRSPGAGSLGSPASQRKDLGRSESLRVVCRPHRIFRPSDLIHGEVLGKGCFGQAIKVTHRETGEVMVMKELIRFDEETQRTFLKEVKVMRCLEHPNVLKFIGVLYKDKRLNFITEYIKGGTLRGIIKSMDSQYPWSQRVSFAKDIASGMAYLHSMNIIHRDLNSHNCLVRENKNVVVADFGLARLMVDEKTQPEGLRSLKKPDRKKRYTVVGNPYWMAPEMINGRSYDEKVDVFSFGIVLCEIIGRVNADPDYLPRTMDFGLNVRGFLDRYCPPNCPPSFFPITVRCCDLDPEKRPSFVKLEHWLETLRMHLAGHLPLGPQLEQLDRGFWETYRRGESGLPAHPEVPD
Sequence of TYK2 JH1 catalytic (human) (P29597 whole entry, looked up): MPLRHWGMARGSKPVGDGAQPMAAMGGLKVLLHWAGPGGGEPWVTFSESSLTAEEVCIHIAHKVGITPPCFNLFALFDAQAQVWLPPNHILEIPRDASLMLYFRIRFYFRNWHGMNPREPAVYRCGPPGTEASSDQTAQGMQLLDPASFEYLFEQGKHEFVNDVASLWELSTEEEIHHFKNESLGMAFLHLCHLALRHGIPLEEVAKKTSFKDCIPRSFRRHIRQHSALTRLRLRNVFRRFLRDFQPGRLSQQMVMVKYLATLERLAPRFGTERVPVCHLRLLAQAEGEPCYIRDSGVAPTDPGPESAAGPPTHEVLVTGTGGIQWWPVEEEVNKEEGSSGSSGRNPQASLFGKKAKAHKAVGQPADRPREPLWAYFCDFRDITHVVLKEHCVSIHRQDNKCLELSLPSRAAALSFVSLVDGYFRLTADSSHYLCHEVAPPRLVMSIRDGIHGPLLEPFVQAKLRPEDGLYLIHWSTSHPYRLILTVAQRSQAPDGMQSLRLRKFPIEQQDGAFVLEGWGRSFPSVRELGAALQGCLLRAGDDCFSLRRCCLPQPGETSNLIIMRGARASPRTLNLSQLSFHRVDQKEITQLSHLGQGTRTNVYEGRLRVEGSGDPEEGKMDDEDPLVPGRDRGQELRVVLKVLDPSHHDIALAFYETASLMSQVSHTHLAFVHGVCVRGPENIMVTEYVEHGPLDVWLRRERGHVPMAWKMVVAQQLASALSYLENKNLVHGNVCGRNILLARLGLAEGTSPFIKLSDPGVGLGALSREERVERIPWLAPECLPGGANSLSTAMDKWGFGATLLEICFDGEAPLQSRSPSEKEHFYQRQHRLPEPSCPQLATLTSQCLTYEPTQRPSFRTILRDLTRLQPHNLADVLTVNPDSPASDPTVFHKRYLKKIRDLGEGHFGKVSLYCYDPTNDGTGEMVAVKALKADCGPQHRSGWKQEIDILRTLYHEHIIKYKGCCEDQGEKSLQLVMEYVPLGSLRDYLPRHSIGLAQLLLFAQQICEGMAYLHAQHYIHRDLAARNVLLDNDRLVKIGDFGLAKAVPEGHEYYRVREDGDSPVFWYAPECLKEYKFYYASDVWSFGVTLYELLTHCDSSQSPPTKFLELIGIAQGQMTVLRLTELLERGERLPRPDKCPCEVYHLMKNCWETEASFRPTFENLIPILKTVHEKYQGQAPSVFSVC
Sequence of PRKG2 (human) (Q13237 whole entry, looked up): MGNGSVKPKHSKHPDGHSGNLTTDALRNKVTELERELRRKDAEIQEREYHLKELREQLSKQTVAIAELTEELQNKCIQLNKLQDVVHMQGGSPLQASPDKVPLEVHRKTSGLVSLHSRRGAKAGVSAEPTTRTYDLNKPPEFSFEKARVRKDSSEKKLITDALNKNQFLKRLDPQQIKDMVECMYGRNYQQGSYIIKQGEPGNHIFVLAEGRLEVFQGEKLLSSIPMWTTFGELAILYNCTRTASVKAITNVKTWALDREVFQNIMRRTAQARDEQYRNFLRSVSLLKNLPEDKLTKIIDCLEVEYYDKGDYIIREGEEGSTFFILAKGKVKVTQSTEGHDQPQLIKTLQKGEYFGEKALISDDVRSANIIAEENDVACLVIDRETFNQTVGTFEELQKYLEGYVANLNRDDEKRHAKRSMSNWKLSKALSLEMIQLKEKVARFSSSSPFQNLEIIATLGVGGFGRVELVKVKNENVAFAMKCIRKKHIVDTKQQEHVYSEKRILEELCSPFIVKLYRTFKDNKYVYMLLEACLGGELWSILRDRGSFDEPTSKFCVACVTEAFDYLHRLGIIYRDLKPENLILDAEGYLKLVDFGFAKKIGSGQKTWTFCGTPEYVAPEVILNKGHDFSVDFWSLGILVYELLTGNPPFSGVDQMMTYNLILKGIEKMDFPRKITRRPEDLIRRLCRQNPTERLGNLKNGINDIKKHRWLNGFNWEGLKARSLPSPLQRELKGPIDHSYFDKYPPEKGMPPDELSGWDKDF
Sequence of STK16 (human) (O75716 whole entry, looked up): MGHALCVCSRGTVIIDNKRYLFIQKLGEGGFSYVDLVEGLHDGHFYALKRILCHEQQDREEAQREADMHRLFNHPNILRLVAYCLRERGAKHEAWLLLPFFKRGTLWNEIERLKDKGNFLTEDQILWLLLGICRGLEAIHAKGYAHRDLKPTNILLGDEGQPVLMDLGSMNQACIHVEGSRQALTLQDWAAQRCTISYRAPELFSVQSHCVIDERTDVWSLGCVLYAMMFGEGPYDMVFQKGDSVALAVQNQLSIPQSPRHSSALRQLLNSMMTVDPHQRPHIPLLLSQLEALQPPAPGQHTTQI
Sequence of CDK3 (human) (Q00526 whole entry, looked up): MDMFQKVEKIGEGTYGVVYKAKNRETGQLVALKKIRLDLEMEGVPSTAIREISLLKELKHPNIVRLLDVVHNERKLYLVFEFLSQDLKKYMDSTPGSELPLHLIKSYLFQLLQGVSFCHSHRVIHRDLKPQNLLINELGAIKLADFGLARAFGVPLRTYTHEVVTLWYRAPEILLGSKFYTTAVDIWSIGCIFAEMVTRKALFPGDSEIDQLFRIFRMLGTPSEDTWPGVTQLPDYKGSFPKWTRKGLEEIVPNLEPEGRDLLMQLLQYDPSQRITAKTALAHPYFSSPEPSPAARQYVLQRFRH
Sequence of STK4 (human) (Q13043 whole entry, looked up): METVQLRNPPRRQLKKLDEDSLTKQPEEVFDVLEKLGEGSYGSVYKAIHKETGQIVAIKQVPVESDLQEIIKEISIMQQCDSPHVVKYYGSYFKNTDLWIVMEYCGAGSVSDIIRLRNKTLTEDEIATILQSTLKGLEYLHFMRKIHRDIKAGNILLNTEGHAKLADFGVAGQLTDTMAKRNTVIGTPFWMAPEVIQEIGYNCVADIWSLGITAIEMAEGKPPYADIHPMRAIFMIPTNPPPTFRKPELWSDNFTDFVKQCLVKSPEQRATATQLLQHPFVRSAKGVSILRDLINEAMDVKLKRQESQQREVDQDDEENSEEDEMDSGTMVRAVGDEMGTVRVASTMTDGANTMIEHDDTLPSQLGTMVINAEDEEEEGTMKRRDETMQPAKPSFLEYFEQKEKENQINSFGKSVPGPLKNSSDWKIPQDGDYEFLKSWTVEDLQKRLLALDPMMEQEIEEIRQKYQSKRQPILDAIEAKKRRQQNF
Sequence of PIP5K1A (human) (Q99755 whole entry, looked up): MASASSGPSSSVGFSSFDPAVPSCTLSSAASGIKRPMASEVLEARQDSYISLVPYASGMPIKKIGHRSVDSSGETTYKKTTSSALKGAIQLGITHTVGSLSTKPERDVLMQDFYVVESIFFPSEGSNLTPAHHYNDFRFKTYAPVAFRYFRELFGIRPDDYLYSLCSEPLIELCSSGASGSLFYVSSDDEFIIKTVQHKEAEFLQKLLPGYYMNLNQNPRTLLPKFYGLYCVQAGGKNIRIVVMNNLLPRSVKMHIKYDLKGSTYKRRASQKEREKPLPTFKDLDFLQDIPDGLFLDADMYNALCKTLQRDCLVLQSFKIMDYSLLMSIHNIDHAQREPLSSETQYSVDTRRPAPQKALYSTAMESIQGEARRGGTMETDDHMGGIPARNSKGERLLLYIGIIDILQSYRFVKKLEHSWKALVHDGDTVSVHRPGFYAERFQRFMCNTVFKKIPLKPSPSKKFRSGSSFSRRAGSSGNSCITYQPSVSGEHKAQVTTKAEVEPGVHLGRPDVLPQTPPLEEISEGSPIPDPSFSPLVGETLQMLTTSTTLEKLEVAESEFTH

Row | Compound | kinase still bound, per cent of control (CDK17 (human)) | kinase still bound, per cent of control (NTRK3 (human)) | kinase still bound, per cent of control (RPS6KA6 KD1 (human)) | kinase still bound, per cent of control [1] | kinase still bound, per cent of control (STK4 (human)) | kinase still bound, per cent of control [2] | kinase still bound, per cent of control (MYO3B (human)) | kinase still bound, per cent of control (MAPK10 (human)) | kinase still bound, per cent of control [3] | kinase still bound, per cent of control (CDK8 (human)) | kinase still bound, per cent of control (RPS6KA4 KD2 (human)) | kinase still bound, per cent of control (PRKG2 (human)) | kinase still bound, per cent of control (FGR (human)) | kinase still bound, per cent of control (CAMKK1 (human)) | kinase still bound, per cent of control (MLTK (human)) | kinase still bound, per cent of control (PKN2 (human)) | kinase still bound, per cent of control (STK10 (human)) | kinase still bound, per cent of control (FGFR3 (human)) | kinase still bound, per cent of control (PIP5K1A (human)) | kinase still bound, per cent of control (NEK5 (human)) | other results
1 | CCOc1cc2ncc(C#N)c(Nc3ccc(OCc4ccccn4)c(Cl)c3)c2cc1NC(=O)/C=C/CN(C)C | 100% | 78% | 86% | 1.4% | 17% | 100% | 100% | 27% | 100% | 100% | 94% | 92% | 40% | 100% | 70% | 72% | 0% | 98% | 100% | 100% | kinase still bound, per cent of control (DCLK3 (human)): 100%; kinase still bound, per cent of control (TNK1 (human)): 100%; kinase still bound, per cent of control (PRKCE (human)): 100%; kinase still bound, per cent of control (STK24 (human)): 0.35%; kinase still bound, per cent of control (CDK11B (human)): 97%; kinase still bound, per cent of control (STK16 (human)): 96%; kinase still bound, per cent of control (PKN1 (human)): 100%; kinase still bound, per cent of control (LIMK1 (human)): 100%; kinase still bound, per cent of control (MAP4K4 (human)): 6.2%; kinase still bound, per cent of control (FGFR2 (human)): 96%; kinase still bound, per cent of control (MAP4K2 (human)): 5.2%; kinase still bound, per cent of control (CDK3 (human)): 100%; kinase still bound, per cent of control (PTK2B (human)): 90%; kinase still bound, per cent of control [4]: 70%; kinase still bound, per cent of control (EPHA1 (human)): 100%; kinase still bound, per cent of control (STK38L (human)): 100%; kinase still bound, per cent of control (EPHA8 (human)): 78%; kinase still bound, per cent of control (GAK (human)): 10%; kinase still bound, per cent of control (CDC42BPG (human)): 100%; kinase still bound, per cent of control (PRKAA2 (human)): 80%
2 | C=CC(=O)Nc1cccc(Oc2nc(Nc3ccc(N4CCN(C)CC4)cc3OC)ncc2Cl)c1 | 100% | 100% | 100% | 0.35% | 100% | 100% | 100% | 13% | 100% | 100% | 16% | 100% | 100% | 18% | 100% | 100% | 100% | 100% | 11% | 100% | kinase still bound, per cent of control (DCLK3 (human)): 0.35%; kinase still bound, per cent of control (TNK1 (human)): 1.8%; kinase still bound, per cent of control (PRKCE (human)): 100%; kinase still bound, per cent of control (STK24 (human)): 100%; kinase still bound, per cent of control (CDK11B (human)): 100%; kinase still bound, per cent of control (STK16 (human)): 27%; kinase still bound, per cent of control (PKN1 (human)): 100%; kinase still bound, per cent of control (LIMK1 (human)): 100%; kinase still bound, per cent of control (MAP4K4 (human)): 100%; kinase still bound, per cent of control (FGFR2 (human)): 100%; kinase still bound, per cent of control (MAP4K2 (human)): 100%; kinase still bound, per cent of control (CDK3 (human)): 100%; kinase still bound, per cent of control (PTK2B (human)): 25%; kinase still bound, per cent of control [4]: 13%; kinase still bound, per cent of control (EPHA1 (human)): 100%; kinase still bound, per cent of control (STK38L (human)): 100%; kinase still bound, per cent of control (EPHA8 (human)): 100%; kinase still bound, per cent of control (GAK (human)): 0.45%; kinase still bound, per cent of control (CDC42BPG (human)): 100%; kinase still bound, per cent of control (PRKAA2 (human)): 100%
